# How the values were obtained:
# Format in all cases: functional
# [1] = system: T47D; assay: Cytotoxicity against Homo sapiens (human) T47D cells assessed as cellular growth at 10^-5 M after 48 hr by SRB assay relative to untreated control
# [2] = system: SR; assay: Cytotoxicity against Homo sapiens (human) SR cells assessed as cellular growth at 10^-5 M after 48 hr by SRB assay relative to untreated control
# [3] = system: PC-3; assay: Cytotoxicity against Homo sapiens (human) PC3 cells assessed as cellular growth at 10^-5 M after 48 hr by SRB assay relative to untreated control
# [4] = system: CCRF-CEM; assay: Cytotoxicity against Homo sapiens (human) CCRF-CEM cells assessed as cellular growth at 10^-5 M after 48 hr by SRB assay relative to untreated control
# [5] = system: BT-549; assay: Cytotoxicity against Homo sapiens (human) BT549 cells assessed as cellular growth at 10^-5 M after 48 hr by SRB assay relative to untreated control
# [6] = system: SF-295; assay: Cytotoxicity against Homo sapiens (human) SF295 cells assessed as cellular growth at 10^-5 M after 48 hr by SRB assay relative to untreated control
# [7] = system: IGROV-1; assay: Cytotoxicity against Homo sapiens (human) IGROV1 cells assessed as cellular growth at 10^-5 M after 48 hr by SRB assay relative to untreated control
# [8] = system: K562; assay: Cytotoxicity against Homo sapiens (human) K562 cells assessed as cellular growth at 10^-5 M after 48 hr by SRB assay relative to untreated control
# [9] = system: HL-60(TB); assay: Cytotoxicity against Homo sapiens (human) HL-60(TB) cells assessed as cellular growth at 10^-5 M after 48 hr by SRB assay relative to untreated control
# [10] = system: RPMI-8226; assay: Cytotoxicity against Homo sapiens (human) RPMI8226 cells assessed as cellular growth at 10^-5 M after 48 hr by SRB assay relative to untreated control
# [11] = system: COLO 205; assay: Cytotoxicity against Homo sapiens (human) COLO205 cells assessed as cellular growth at 10^-5 M after 48 hr by SRB assay relative to untreated control
# [12] = system: SK-OV-3; assay: Cytotoxicity against Homo sapiens (human) SKOV3 cells assessed as cellular growth at 10^-5 M after 48 hr by SRB assay relative to untreated control
smiles,measurement,setting,value
COC(=O)[C@]12CCC(C)(C)C[C@H]1C1=CC[C@@H]3[C@@]4(C)CCC(=O)C(C)(C)[C@@H]4CC[C@@]3(C)[C@]1(C)CC2,Activity,[1],75.65%
same,Activity,[2],63.87%
same,Activity,[3],85.25%
COC(=O)[C@]12CCC(C)(C)C[C@H]1C1=CC[C@@H]3[C@@]4(C)CC/C(=N\OC(=O)CN5C(=O)CSC5=S)C(C)(C)[C@@H]4CC[C@@]3(C)[C@]1(C)CC2,Activity,[4],56.34%
COC(=O)[C@]12CCC(C)(C)C[C@H]1C1=CC[C@@H]3[C@@]4(C)CC/C(=N\OC(=O)CCCCCN5C(=O)CSC5=S)C(C)(C)[C@@H]4CC[C@@]3(C)[C@]1(C)CC2,Activity,[1],76.91%
same,Activity,[2],42.83%
COC(=O)[C@]12CCC(C)(C)C[C@H]1C1=CC[C@@H]3[C@@]4(C)CC/C(=N\OC(=O)CN5C(=O)/C(=C/c6ccc(OC)cc6)SC5=S)C(C)(C)[C@@H]4CC[C@@]3(C)[C@]1(C)CC2,Activity,[5],67.36%
same,Activity,[6],72.97%
COC(=O)[C@]12CCC(C)(C)C[C@H]1C1=CC[C@@H]3[C@@]4(C)CC/C(=N\OC(=O)CCN5C(=O)/C(=C/c6ccc(N(C)C)cc6)SC5=S)C(C)(C)[C@@H]4CC[C@@]3(C)[C@]1(C)CC2,Activity,[7],82.21%
CC1(C)CC[C@]2(C(=O)O)CC[C@]3(C)C(=CC[C@@H]4[C@@]5(C)CC/C(=N\OC(=O)CC6SC(=O)NC6=O)C(C)(C)[C@@H]5CC[C@]43C)[C@@H]2C1 (some centres undefined),Activity,[8],54.55%
same,Activity,[2],54.18%
CC1(C)CC[C@]2(C(=O)N3CCOCC3)CC[C@]3(C)C(=CC[C@@H]4[C@@]5(C)CC/C(=N\OC(=O)CC6SC(=O)NC6=O)C(C)(C)[C@@H]5CC[C@]43C)[C@@H]2C1 (some centres undefined),Activity,[9],42.47%
same,Activity,[10],21.46%
same,Activity,[1],29.41%
same,Activity,[2],48.74%
CC1(C)CC[C@@]23CC[C@]4(C)[C@@](OC2=O)([C@@H]3C1)[C@@H](Br)C[C@@H]1[C@@]2(C)CC/C(=N\OC(=O)/C=C3/SC(=O)NC3=O)C(C)(C)[C@@H]2CC[C@]14C,Activity,[9],26.14%
same,Activity,[10],26.82%
same,Activity,[1],24.85%
same,Activity,[8],27.12%
same,Activity,[2],29.41%
CC1(C)CC[C@@]23CC[C@]4(C)[C@@](OC2=O)([C@@H]3C1)[C@@H](Br)C[C@@H]1[C@@]2(C)CCC(=O)C(C)(C)[C@@H]2CC[C@]14C,Activity,[11],302.68%
same,Activity,[6],270.75%
same,Activity,[12],335.31%
same,Activity,[8],78.11%

# Source: ChEMBL document CHEMBL3045033, “Synthesis of new potential anticancer agents based on 4-thiazolidinone and oleanane scaffolds” (Med Chem Res, 2012)
